In brackets after ≈: the same amount, converted by molar mass. No end group written: not given here.
Legend:
[1] = tested on: F. solani and F. oxysporum; test: Minimum inhibitory concentration (MIC) determination, Fusarium strains; format: cell-based; details: F. solani and F. oxysporum (n = 6)
Experimental: MIC of cationic polymers and polypeptide were tested in accordance with the Clinical and Laboratory Standards Institute (CLSI) guidelines against a panel of antibiotic-susceptible/-resistant bacteria, yeasts and fungal strains. Bacterial and yeast strains were cultured on tryptic soy agar (TSA) and Sabaroud dextrose agar (SDA) plates (Neogen Corporation, MI, USA) overnight respectively. Inocula in Mueller-Hinton broth (MHB) for bacteria and SD broth for C. albicans (Beckton Dickinson, MD, USA) were prepared at 0.5 McFarland. The suspensions were then diluted to a final concentration of 10^5 CFU/ml in a 96-well microtitre plate (SPL Life Sciences Co., Ltd, Korea). Polymers and polypeptides were added to the inoculum in 2-fold serial dilutions to give a range of concentrations from 2-1024 μg/ml. […] The antimicrobial activities were compared with topical antiseptic agents, BAK and CHX. […] MIC of the polymers and polypeptides against Fusarium strains was determined in full strength RPMI-1640 buffer. […] The absorbance value was measured at 600 nm as before and the lowest concentration of the peptide which inhibited 90% growth was reported. […]
(§1) MICs of polymers/antibiotics were determined using the microdilution method in 96 well microtitre plates (SPL Life Sciences Co., Ltd, Korea), following the guidelines of Clinical and Laboratory Standards Institute (CLSI) document M100-S18. […]

P. aeruginosa = format: cell-based, Pseudomonas aeruginosa; details: P. aeruginosa (n = 22)
Experimental: (§2) MIC of cationic polymers and polypeptide were tested in accordance with the Clinical and Laboratory Standards Institute (CLSI) guidelines against a panel of antibiotic-susceptible/-resistant bacteria, yeasts and fungal strains. Bacterial and yeast strains were cultured on tryptic soy agar (TSA) and Sabaroud dextrose agar (SDA) plates (Neogen Corporation, MI, USA) overnight respectively. Inocula in Mueller-Hinton broth (MHB) for bacteria and SD broth for C. albicans (Beckton Dickinson, MD, USA) were prepared at 0.5 McFarland. The suspensions were then diluted to a final concentration of 10^5 CFU/ml in a 96-well microtitre plate (SPL Life Sciences Co., Ltd, Korea). Polymers and polypeptides were added to the inoculum in 2-fold serial dilutions to give a range of concentrations from 2-1024 μg/ml. […] The antimicrobial activities were compared with topical antiseptic agents, BAK and CHX. A similar protocol was used to determine the MIC of εPL against antibiotic-resistant pathogens. MIC of the polymers and polypeptides against Fusarium strains was determined in full strength RPMI-1640 buffer. Fungal spores were recovered from a 5-day old culture on a potato dextrose agar and diluted to a concentration of 10^5 spores/ml in 0.9% saline solution. A further 50-fold dilution was done in RPMI-1640 buffer and 100 μl of the inoculum was added to 96 well plates containing an equal volume of test peptides at 2-fold serial dilutions. 200 μl of inoculum without any additives and buffer alone served as positive and negative controls, respectively. The plate was then incubated at 30° C. for 48 h. The absorbance value was measured at 600 nm as before and the lowest concentration of the peptide which inhibited 90% growth was reported. All MIC determinations were performed in duplicates.
as §1

S. aureus = test: microbe, parasite or virus in culture; format: cell-based, Staphylococcus aureus; details: S. aureus (n = 6)
Experimental: as §2
(§3) MICs of polymers/antibiotics were determined using the microdilution method in 96 well microtitre plates (SPL Life Sciences Co., Ltd, Korea), following the guidelines of Clinical and Laboratory Standards Institute (CLSI) document M100-S18. Briefly, polymers (1-512 μg/ml) or antibiotics were dissolved in appropriate media (Mueller Hinton broth, MHB for bacteria; Sabaroud's Dextrose (SD) broth for yeasts and RPMI buffer for Fusarium strains) and 100 μl of this was then mixed with an equal volume of microbial inoculum (OD600=˜0.08) in the same media and shaken in a closed incubator.

K. pneumoniae = test: microbe, parasite or virus in culture; format: cell-based, Klebsiella pneumoniae; details: K. pneumonia (n = 4)
Experimental: as §2, §3

E. coli = test: microbe, parasite or virus in culture; format: cell-based, Escherichia coli; details: E. coli (n = 3)
Experimental: as §2, §3

A. baumannii = test: microbe, parasite or virus in culture; details: A. baumanii (n = 3)
Experimental: as §2, with “Korea).” for “Korea). Polymers and polypeptides were added to the inoculum in 2-fold serial dilutions to give a range of concentrations from 2-1024 μg/ml.”
as §3

[2] = tested on: Carbapenam-resistant Enterobacter strains (CRE); test: microbe, parasite or virus in culture; details: CRE strains (n = 4)
Experimental: as §2, with “Korea).” for “Korea). Polymers and polypeptides were added to the inoculum in 2-fold serial dilutions to give a range of concentrations from 2-1024 μg/ml.”
as §3

E. cloacae complex = test: microbe, parasite or virus in culture; details: E. clocae complex (n = 4)
Experimental: as §2, with “Korea).” for “Korea). Polymers and polypeptides were added to the inoculum in 2-fold serial dilutions to give a range of concentrations from 2-1024 μg/ml.”
as §3

MRSA = format: cell-based, Staphylococcus aureus; details: MRSA (n = 9)
Experimental: as §2, §3

C. albicans = C. albicans (n = 5)
Experimental: as §2, with “Korea).” for “Korea). Polymers and polypeptides were added to the inoculum in 2-fold serial dilutions to give a range of concentrations from 2-1024 μg/ml.”
as §3

[3] = tested on: Vancomycin-resistant Enterococcus (VRE); details: VRE (n = 3)
Experimental: as §2, with “Korea).” for “Korea). Polymers and polypeptides were added to the inoculum in 2-fold serial dilutions to give a range of concentrations from 2-1024 μg/ml.”
as §3

[4] = tested on: T-cell lymphomas (HuT78, MJ, HH) and B-cell lymphomas (Ly-4 and Ly-18); test: Anticancer properties of hypercharged peptides (MTS); format: cell-based, human; details: 62.5-500 μg/ml
Experimental: The hyper-charged peptides were screened for their anticancer properties using cell lines derived from patients with various forms of cutaneous lymphomas, including T-cell lymphomas (HuT78, MJ, HH) and B-cell lymphomas (Ly-4 and Ly-18). The relative cytotoxicity of these peptides was also assessed in healthy primary peripheral blood lymphocyte (PBL) T-cells. Cytotoxicity was measured as the mitochondrial function by metabolic reduction of MTS.

P. aeruginosa ATCC 9027 = test: Antimicrobial activity of the peptides in trypsin; format: cell-based, Pseudomonas aeruginosa; details: trypsin:peptide 1:100, 37° C.
Experimental: To determine the antimicrobial activity of the peptides in the presence of proteases, 1 mg/ml of HC1 and HC2 were incubated with trypsin enzyme:peptide weight ratio 1:100) for 1 h at 37° C. After this, a 20 μl aliquot of this solution was mixed 180 μl of bacterial inoculum (P. aeruginosa ATCC 9027, 10^5 CFU/ml in MHB) and incubated at room temperature for 6 h. 100 μL aliquots of the suspension was diluted serially (10-fold) in 10 mM PBS solution and pour plated on MH agar plates and incubated at 37° C. for 48 h and colony forming units per ml (CFU/ml) are enumerated.

Compound	MIC [1] [µg/mL]	MIC (P. aeruginosa) [µg/mL]	MIC (S. aureus) [µg/mL]	MIC (K. pneumoniae) [µg/mL]	MIC (E. coli) [µg/mL]	MIC (A. baumannii) [µg/mL]	MIC [2] [µg/mL]	MIC (E. cloacae complex) [µg/mL]	MIC (MRSA) [µg/mL]	MIC (C. albicans) [µg/mL]	MIC [3] [µg/mL]	cell killing in lymphoma cell lines [4]	decrease in the bacterial viability after incubation with trypsin for 1 hour (P. aeruginosa ATCC 9027)
C[C@@H]1C/C=C/C=C/C=C/C=C/[C@H](O[C@@H]2O[C@H](C)[C@@H](O)[C@H](N)[C@@H]2O)C[C@@H]2O[C@](O)(C[C@@H](O)C[C@H]3O[C@@H]3/C=C/C(=O)O1)C[C@H](O)[C@H]2C(=O)O [Natamycin]	8000 to 16000 (≈ 12000 to 24000 µM)												
N=C(N)NCCC[C@H](NC(=O)[C@H](N)CCCCNC(=O)[C@H](CCCNC(=N)N)NC(=O)[C@H](N)CCCCNC(=O)[C@H](CCCNC(=N)N)NC(=O)[C@H](N)CCCCNC(=O)[C@H](CCCNC(=N)N)NC(=O)[C@H](N)CCCCNC(=O)[C@H](CCCNC(=N)N)NC(=O)[C@H](N)CCCCNC(=O)[C@H](CCCNC(=N)N)NC(=O)[C@H](N)CCCCN)C(=O)O [HC6, kRkRkRkRkRkR]		32 to 64	32 to 64	32 to 128	16 (≈ 9.28 µM)	16 to 64	64 to 128	64 to 128	16 to 32	16 to 32	16 (≈ 9.28 µM)	varying degrees of cell killing	
KRKRKRKRKRKR [HC1, KRKRKRKRKRKR]		32 to 128	32 to 64	64	16	64 to 128	64 to 128	64 to 128	16 to 64	64 to 128	16 to 32	varying degrees of cell killing	complete loss of activity

Source: patent publication US11396531B2, “Antimicrobial peptides comprising epsilon lysine residues” (priority 2016, dated 2022)
